According to US9296725B2, “Heterocyclyl pyrimidine analogues as TYK2 inhibitors” (Cellzome Limited, priority 2012, dated 2016):

What was measured:
JAK2 = biological target: T1, JAK2 (Homo sapiens, UniProt O60674); assay: Kinobeads assay, JAK2 (competition binding in mixed Molt4/Ramos cell lysate, dot blot detection); conditions: read-out: JAK2 Band (Kinobeads assay potency, IC50)
T1 construct: endogenous in cells; host or cells: Molt4 (ATCC CRL-1582) and Ramos (ATCC CRL-1596), mixed lysate 1:2
Description: (§1) The compounds of the present invention as described in the previous examples were tested in a Kinobeads™ assay as described for ZAP-70 (WO-A 2007/137867). Briefly, test compounds (at various concentrations) and the affinity matrix with the immobilized aminopyrido-pyrimidine ligand 24 were added to cell lysate aliquots and allowed to bind to the proteins in 10 the lysate sample. After the incubation time the beads with captured proteins were separated from the lysate. Bound proteins were then eluted and the presence of TYK2 and JAK2 was detected and quantified using specific antibodies in a dot blot procedure and the Odyssey infrared detection system. Dose response curves for individual kinases were generated and IC50 values calculated. Kinobeads™ assays have been previously described (WO-A 2007/137867; WO-A 2006/134056).
(§2) The affinity matrix was washed two times with 15 mL of 1×DP buffer containing 0.2% NP40 (IGEPAL® CA-630, Sigma, #13021) and then resuspended in 1×DP buffer containing 0.2% NP40 (3% beads slurry). 5×DP buffer: 250 mM Tris-HCl pH 7.4, 25% Glycerol, 7.5 mM MgCl2, 750 mM NaCl, 5 mM Na3VO4; filter the 5×DP buffer through a 0.22 μm filter and store in aliquots at −80° C. The 5×DP buffer is diluted with H2O to 1×DP buffer containing 1 mM DTT and 25 mM NaF.
(§3) Stock solutions of test compounds were prepared in DMSO. In a 96 well plate 30 μL solution of diluted test compounds at 5 mM in DMSO were prepared. Starting with this solution a 1:3 dilution series (9 steps) was prepared. For control experiments (no test compound) a buffer containing 2% DMSO was used.
(§4) Molt4 cells (ATCC catalogue number CRL-1582) and Ramos cells (ATCC catalogue number CRL-1596) were grown in 1 L Spinner flasks (Integra Biosciences, #182101) in suspension in RPMI 1640 medium (Invitrogen, #21875-034) supplemented with 10% Fetal Bovine Serum (Invitrogen) at a density between 0.15×10^6 and 1.2×10^6 cells/mL. Cells were harvested by centrifugation, washed once with 1×PBS buffer (Invitrogen, #14190-094) and cell pellets were frozen in liquid nitrogen and subsequently stored at −80° C. Cells were homogenized in a Potter S homogenizer in lysis buffer: 50 mM Tris-HCl, 0.8% NP40, 5% glycerol, 150 mM NaCl, 1.5 mM MgCl2, 25 mM NaF, 1 mM sodium vanadate, 1 mM DTT, pH 7.5. One complete EDTA-free tablet (protease inhibitor cocktail, Roche Diagnostics, 1873580) per 25 mL buffer was added. The material was dounced 10 times using a mechanized POTTER S, transferred to 50 mL falcon tubes, incubated for 30 minutes on ice and spun down for 10 minutes at 20,000 g at 4° C. (10,000 rpm in Sorvall SLA600, precooled). The supernatant was transferred to an ultracentrifuge (UZ)-polycarbonate tube (Beckmann, 355654) and spun for 1 hour at 100.000 g at 4° C. (33.500 rpm in Ti50.2, precooled). The supernatant was transferred again to a fresh 50 mL falcon tube, the protein concentration was determined by a Bradford assay (BioRad) and samples containing 50 mg of protein per aliquot were prepared. The samples were immediately used for experiments or frozen in liquid nitrogen and stored frozen at −80° C.
(§5) Cell lysate (approximately 50 mg protein per plate) was thawed in a water bath at room temperature and then stored on ice. To the thawed cell lysate 1×DP 0.8% NP40 buffer containing protease inhibitors (1 tablet for 25 mL buffer; EDTA-free protease inhibitor cocktail; Roche Diagnostics 1873580) was added in order to reach a final protein concentration of 10 mg/mL total protein. The diluted cell lysate was stored on ice. Mixed Molt4/Ramos lysate was prepared by combining one volume of Molt4 lysate and two volumes of Ramos lysate (ratio 1:2).
(§6) To a 96 well filter plate (Multiscreen HTS, BV Filter Plates, Millipore #MSBVN1250) were added per well: 100 μL affinity matrix (3% beads slurry), 3 μL of compound solution, and 50 μL of diluted lysate. Plates were sealed and incubated for 3 hours in a cold room on a plate shaker (Heidolph tiramax 1000) at 750 rpm. […]

TYK2 = biological target: T2, TYK2 (Homo sapiens, UniProt P29597); assay: Kinobeads assay, TYK2 (competition binding in mixed Molt4/Ramos cell lysate, dot blot detection); conditions: Kinobeads assay, Molt4/Ramos lysate; read-out: TYK2 Band (Kinobeads assay potency, IC50)
T2 construct: endogenous in cells; host or cells: Molt4 (ATCC CRL-1582) and Ramos (ATCC CRL-1596), mixed lysate 1:2
Description: as §1, §2, §3, §4, §5, §6

T1 sequence (O60674 whole entry): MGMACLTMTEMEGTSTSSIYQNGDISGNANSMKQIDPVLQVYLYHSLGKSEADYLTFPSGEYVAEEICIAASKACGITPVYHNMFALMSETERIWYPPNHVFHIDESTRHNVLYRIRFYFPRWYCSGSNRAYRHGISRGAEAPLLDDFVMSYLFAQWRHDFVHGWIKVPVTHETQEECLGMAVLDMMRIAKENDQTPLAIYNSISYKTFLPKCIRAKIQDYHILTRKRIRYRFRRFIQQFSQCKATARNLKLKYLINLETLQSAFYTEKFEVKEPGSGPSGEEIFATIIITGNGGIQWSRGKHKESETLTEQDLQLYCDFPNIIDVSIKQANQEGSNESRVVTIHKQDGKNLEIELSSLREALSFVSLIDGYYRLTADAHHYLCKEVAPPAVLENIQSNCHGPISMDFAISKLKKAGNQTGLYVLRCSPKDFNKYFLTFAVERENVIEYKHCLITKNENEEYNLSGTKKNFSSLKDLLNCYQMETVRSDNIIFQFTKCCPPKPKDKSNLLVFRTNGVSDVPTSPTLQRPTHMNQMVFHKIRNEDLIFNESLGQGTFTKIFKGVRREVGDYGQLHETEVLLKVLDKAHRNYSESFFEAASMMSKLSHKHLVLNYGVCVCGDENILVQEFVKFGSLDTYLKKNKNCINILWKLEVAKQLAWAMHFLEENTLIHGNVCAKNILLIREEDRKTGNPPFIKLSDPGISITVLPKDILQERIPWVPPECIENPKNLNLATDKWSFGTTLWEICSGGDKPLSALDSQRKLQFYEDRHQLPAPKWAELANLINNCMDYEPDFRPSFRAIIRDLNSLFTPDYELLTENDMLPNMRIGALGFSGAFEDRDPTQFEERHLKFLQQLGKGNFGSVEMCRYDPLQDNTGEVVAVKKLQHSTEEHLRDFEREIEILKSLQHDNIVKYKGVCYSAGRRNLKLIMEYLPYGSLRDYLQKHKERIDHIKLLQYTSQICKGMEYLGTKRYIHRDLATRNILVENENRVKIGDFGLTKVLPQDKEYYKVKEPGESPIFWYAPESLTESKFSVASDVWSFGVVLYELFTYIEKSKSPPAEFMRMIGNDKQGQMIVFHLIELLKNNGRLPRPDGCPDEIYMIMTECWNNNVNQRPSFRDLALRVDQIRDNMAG
T2 sequence (P29597 whole entry): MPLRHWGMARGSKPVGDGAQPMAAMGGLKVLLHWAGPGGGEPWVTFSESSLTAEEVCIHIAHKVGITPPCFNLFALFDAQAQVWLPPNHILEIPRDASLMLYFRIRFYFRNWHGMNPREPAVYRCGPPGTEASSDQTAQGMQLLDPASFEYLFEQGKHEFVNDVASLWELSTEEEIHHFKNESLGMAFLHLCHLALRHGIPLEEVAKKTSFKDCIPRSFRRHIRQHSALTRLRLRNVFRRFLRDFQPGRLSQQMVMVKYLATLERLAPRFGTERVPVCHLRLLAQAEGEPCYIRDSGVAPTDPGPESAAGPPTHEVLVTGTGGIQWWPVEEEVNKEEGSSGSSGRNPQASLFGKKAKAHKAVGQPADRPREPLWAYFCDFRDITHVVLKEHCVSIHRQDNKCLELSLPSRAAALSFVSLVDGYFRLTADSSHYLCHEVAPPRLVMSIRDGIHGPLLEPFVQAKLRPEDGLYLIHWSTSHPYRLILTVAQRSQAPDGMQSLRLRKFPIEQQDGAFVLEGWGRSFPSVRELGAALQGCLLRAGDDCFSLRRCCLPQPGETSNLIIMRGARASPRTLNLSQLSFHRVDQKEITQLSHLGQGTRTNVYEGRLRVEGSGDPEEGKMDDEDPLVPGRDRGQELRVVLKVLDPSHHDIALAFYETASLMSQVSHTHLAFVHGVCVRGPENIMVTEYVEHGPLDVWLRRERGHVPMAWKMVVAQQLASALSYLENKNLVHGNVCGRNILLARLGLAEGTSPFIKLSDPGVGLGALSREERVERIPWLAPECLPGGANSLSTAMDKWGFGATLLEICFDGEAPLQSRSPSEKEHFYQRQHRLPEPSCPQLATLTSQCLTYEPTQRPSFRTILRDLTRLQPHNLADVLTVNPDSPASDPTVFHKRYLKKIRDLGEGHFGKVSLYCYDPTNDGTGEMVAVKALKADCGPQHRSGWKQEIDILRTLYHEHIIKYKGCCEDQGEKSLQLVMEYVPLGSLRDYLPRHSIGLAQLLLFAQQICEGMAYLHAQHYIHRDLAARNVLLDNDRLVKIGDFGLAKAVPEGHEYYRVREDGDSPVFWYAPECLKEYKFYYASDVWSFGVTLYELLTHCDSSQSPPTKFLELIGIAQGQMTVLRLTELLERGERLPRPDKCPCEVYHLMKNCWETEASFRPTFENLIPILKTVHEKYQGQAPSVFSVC

In the case of CC(O)Cn1cc(Nc2ncc(Cl)c(NCc3c(F)cccc3F)n2)cn1 (stereo not drawn) [Example I-209], the IC50 (JAK2) is reported as 1000 to 10000 nM and the IC50 (TYK2) is reported as 10 to 100 nM.
CC(C)CNC(=O)Cn1cc(Nc2ncc(Cl)c(NCc3cccc(OC(F)F)c3)n2)cn1 [Example I-392] showed an IC50 (JAK2) of 1000 to 10000 nM and an IC50 (TYK2) of 10 to 100 nM.
CNC(=O)Cn1cc(Nc2ncc(Cl)c(NCc3cc(S(C)(=O)=O)ccc3OC)n2)cn1 [Example I-444] was tested, and the IC50 (JAK2) was 100 to 1000 nM and the IC50 (TYK2) was 10 to 100 nM.
In the case of C[C@H](CO)NC(=O)Cn1cc(Nc2nccc(NCc3c(F)ccc(C#N)c3F)n2)cn1 [Example I-154], the IC50 (JAK2) is reported as 1000 to 10000 nM and the IC50 (TYK2) is reported as no more than 10 nM.
In the case of NC(=O)Cn1cc(Nc2ncc(F)c(NCc3c(Cl)cccc3Cl)n2)cn1 [Example I-328], the IC50 (JAK2) is reported as 1000 to 10000 nM and the IC50 (TYK2) is reported as 10 to 100 nM.
Work on CC(O)Cn1cc(Nc2ncc(Cl)c(NCc3ccccc3)n2)cn1 (stereo not drawn) [Example I-216] yielded an IC50 (JAK2) of 1000 to 10000 nM and an IC50 (TYK2) of 100 to 1000 nM.
C[C@H]1COCCN1C(=O)Cn1cc(Nc2nccc(NCc3c(F)cc(F)cc3F)n2)cn1 [Example I-52] was tested, and the IC50 (JAK2) was 1000 to 10000 nM and the IC50 (TYK2) was 10 to 100 nM.
In the case of N#CCNC(=O)c1cccc(CNc2nc(Nc3cnn(CCO)c3)ncc2Cl)c1 [Example I-242], the IC50 (JAK2) is reported as 1000 to 10000 nM and the IC50 (TYK2) is reported as 100 to 1000 nM.
In the case of Cc1cnc(Nc2cnn(CC(F)F)c2)nc1NCc1ccccc1S(C)(=O)=O [Example I-478], the IC50 (JAK2) is reported as greater than 10000 nM and the IC50 (TYK2) is reported as 1000 to 10000 nM.
In the case of CNC(=O)Cn1cc(Nc2ncc(Cl)c(NCc3c(F)ccc(C)c3F)n2)cn1 [Example I-284], the IC50 (JAK2) is reported as 1000 to 10000 nM and the IC50 (TYK2) is reported as 10 to 100 nM.
Molecule Cc1cnc(Nc2cnn(CC(=O)NC3CC3)c2)nc1NCc1cc(F)ccc1F [Example I-346] has an IC50 (JAK2) of 100 to 1000 nM and an IC50 (TYK2) of 10 to 100 nM.
Work on COc1c(F)cc(F)cc1CNc1nc(Nc2cnn(CC(F)(F)F)c2)ncc1C [Example I-352] yielded an IC50 (JAK2) of 1000 to 10000 nM and an IC50 (TYK2) of 1000 to 10000 nM.
CS(=O)(=O)c1cccc(CNc2nc(Nc3cnn(CC(F)F)c3)ncc2Cl)c1 [Example I-467] was tested, and the IC50 (JAK2) was 1000 to 10000 nM and the IC50 (TYK2) was 1000 to 10000 nM.
C[C@H](CO)NC(=O)Cn1cc(Nc2nccc(NCc3c(F)cccc3F)n2)cn1 [Example I-490] showed an IC50 (JAK2) of 1000 to 10000 nM and an IC50 (TYK2) of 10 to 100 nM.
CN(C)C(=O)Cn1cc(Nc2ncc(Cl)c(NCc3c(Cl)cccc3Cl)n2)cn1 [Example I-326] was tested, and the IC50 (JAK2) was 100 to 1000 nM and the IC50 (TYK2) was 10 to 100 nM.
Work on CCC(CC)NC(=O)Cn1cc(Nc2ncc(F)c(NCc3c(F)cc(F)cc3F)n2)cn1 [Example I-58] yielded an IC50 (JAK2) greater than 10000 nM and an IC50 (TYK2) of 10 to 100 nM.
OCCn1cc(Nc2ncc(Cl)c(NCc3cccc(F)c3)n2)cn1 [Example I-171] showed an IC50 (JAK2) of 100 to 1000 nM and an IC50 (TYK2) of 10 to 100 nM.
For Cc1cnc(Nc2cnn(CC(=O)N3CCOCC3)c2)nc1NCc1cc(F)cc(F)c1 [Example I-348], the IC50 (JAK2) was 10 to 100 nM and the IC50 (TYK2) was 10 to 100 nM.
Work on Cc1cnc(Nc2cnn(CC(=O)N(C)C)c2)nc1NCc1c(F)cccc1F [Example I-299] yielded an IC50 (JAK2) of 100 to 1000 nM and an IC50 (TYK2) of no more than 10 nM.
With COc1ccc(Cl)c(CNc2nc(Nc3cnn(C)c3)ncc2F)c1F [Example I-85] the IC50 (JAK2) was 100 to 1000 nM and the IC50 (TYK2) was 10 to 100 nM.
OCCn1cc(Nc2ncc(Cl)c(NCc3cccc(F)c3C(F)(F)F)n2)cn1 [Example I-333] showed an IC50 (JAK2) of 1000 to 10000 nM and an IC50 (TYK2) of 100 to 1000 nM.
With NC(=O)Cn1cc(Nc2ncc(Cl)c(NCc3ccccc3)n2)cn1 [Example I-206] the IC50 (JAK2) was 100 to 1000 nM and the IC50 (TYK2) was 100 to 1000 nM.
Cc1cnc(Nc2cnn(C)c2)nc1NCc1c(F)cc(S(N)(=O)=O)cc1F [Example I-43] gave an IC50 (JAK2) of 100 to 1000 nM and an IC50 (TYK2) of 10 to 100 nM.
Molecule CS(=O)(=O)c1ccc(F)c(CNc2nc(Nc3cnn(CCO)c3)ncc2F)c1 [Example I-115] has an IC50 (JAK2) of 1000 to 10000 nM and an IC50 (TYK2) of 10 to 100 nM.
